pIC50: −log10 of the molar value.
Columns and labels:
human αVβ6 = target: T1, human αVβ6 (Homo sapiens, UniProt P06756+P18564); experiment: human αVβ6 HTRF binding assay; settings: recombinant human αVβ6 integrin, FITC-conjugated fibronectin
T1 construct: purchased R & D systems 3817-AV
Summary of the method: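 Biotinylated recombinant αVβ6 (1.25 nM final) incubated with FITC-fibronectin (5 nM) 1 h at RT, then streptavidin-terbium (0.625 nM) added and incubated overnight at RT in the dark before HTRF read. Buffer: 20 mM Tris pH 7.4, 1 mM MgCl2, 1 mM MnCl2, 0.01% Tween 20, 0.01% BSA.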

human αVβ8 = human αVβ8 (Homo sapiens, UniProt P06756+P26012); experiment: human αVβ8 HTRF binding assay
Sequence of human αVβ8 (P06756 31-992 limits assumed): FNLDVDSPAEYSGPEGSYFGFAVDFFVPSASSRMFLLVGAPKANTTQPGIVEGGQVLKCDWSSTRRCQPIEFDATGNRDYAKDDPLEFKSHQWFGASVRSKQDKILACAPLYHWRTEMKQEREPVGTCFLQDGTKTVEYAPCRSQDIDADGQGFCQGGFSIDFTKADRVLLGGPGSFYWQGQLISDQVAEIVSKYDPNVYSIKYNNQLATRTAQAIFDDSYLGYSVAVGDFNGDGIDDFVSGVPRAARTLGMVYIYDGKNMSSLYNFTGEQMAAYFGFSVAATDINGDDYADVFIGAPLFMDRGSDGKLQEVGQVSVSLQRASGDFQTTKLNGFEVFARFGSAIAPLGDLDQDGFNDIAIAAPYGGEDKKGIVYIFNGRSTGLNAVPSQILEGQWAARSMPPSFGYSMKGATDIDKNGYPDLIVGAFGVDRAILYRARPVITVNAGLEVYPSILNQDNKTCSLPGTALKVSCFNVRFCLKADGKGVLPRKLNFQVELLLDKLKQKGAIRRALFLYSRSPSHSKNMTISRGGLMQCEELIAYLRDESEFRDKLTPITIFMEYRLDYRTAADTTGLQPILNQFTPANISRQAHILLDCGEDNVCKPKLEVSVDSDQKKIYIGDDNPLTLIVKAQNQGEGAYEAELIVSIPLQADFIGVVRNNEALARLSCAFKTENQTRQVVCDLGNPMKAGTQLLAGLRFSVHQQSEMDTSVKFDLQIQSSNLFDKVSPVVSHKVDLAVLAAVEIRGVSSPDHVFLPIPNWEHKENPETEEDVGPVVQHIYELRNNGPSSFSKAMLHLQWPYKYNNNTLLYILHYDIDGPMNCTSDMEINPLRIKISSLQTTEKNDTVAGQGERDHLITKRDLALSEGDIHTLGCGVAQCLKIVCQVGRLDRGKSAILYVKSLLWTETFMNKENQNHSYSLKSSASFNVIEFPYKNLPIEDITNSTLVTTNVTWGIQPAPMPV
Sequence of human αVβ8 (P26012 43-684 limits assumed): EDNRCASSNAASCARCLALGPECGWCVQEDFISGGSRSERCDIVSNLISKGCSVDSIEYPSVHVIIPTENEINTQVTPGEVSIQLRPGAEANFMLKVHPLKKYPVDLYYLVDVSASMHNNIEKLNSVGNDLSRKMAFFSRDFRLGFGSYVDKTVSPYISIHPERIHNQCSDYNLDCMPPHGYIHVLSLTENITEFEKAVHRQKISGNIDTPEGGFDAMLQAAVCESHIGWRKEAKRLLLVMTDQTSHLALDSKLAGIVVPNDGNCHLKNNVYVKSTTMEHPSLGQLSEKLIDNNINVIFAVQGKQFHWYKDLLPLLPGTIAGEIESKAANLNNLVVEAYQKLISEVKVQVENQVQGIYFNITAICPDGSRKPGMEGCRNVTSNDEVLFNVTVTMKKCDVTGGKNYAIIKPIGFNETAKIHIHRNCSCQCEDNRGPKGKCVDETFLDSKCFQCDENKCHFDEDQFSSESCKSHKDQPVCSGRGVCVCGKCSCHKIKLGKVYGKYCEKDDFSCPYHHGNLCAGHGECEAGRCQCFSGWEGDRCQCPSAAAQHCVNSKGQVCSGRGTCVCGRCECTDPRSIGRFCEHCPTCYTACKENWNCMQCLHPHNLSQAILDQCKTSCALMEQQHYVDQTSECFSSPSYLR
Description: (§1) All binding assays used the HTRF (homogeneous time resolved fluorescence) technology from Cisbio International, therefore all assays are described as HTRF binding assays. The assay results for the Examples are listed above together with the characterization data. The HTRF binding assays are established for the following integrins: human αVβ6, human αVβ1, human αVβ3, human αVβ5, and human αVβ8. All assays used the following assay buffer: 20 mM Tris, pH 7.4, 1 mM MgCl2, 1 mM MnCl2, 0.01% Tween 20, and 0.01% BSA. Alternatively, a SPA-based assay was used for evaluation of receptor binding. […]

human αVβ5 = human αVβ5 (Homo sapiens, UniProt P06756+P18084); experiment: human αVβ5 HTRF binding assay
Sequence of human αVβ5 (P06756 31-992 limits assumed): as the sequence (P06756 31-992 limits assumed) above
Sequence of human αVβ5 (P18084 24-719 limits assumed): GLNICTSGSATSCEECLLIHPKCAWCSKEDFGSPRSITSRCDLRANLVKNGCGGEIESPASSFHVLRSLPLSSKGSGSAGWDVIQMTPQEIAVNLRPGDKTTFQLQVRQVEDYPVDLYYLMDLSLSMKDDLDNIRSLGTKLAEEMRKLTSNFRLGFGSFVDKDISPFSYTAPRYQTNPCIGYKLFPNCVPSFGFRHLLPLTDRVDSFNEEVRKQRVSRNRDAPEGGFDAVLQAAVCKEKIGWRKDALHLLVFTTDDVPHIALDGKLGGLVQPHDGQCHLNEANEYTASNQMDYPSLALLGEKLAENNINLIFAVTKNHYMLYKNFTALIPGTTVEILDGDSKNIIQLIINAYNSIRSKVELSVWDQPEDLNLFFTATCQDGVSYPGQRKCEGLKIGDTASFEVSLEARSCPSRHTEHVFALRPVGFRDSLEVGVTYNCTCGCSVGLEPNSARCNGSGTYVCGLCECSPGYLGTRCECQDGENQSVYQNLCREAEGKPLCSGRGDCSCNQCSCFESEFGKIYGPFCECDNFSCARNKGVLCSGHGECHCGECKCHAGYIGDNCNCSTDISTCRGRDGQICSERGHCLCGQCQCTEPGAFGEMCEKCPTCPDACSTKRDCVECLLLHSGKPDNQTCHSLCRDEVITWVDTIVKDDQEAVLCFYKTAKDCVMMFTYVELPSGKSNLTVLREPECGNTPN
Description: as §1

human αVβ3 = human αVβ3 (Homo sapiens, UniProt P05106+P06756); experiment: human αVβ3 HTRF binding assay
Sequence of human αVβ3 (P06756 31-992 limits assumed): as the sequence (P06756 31-992 limits assumed) above
Sequence of human αVβ3 (P05106 27-718 limits assumed): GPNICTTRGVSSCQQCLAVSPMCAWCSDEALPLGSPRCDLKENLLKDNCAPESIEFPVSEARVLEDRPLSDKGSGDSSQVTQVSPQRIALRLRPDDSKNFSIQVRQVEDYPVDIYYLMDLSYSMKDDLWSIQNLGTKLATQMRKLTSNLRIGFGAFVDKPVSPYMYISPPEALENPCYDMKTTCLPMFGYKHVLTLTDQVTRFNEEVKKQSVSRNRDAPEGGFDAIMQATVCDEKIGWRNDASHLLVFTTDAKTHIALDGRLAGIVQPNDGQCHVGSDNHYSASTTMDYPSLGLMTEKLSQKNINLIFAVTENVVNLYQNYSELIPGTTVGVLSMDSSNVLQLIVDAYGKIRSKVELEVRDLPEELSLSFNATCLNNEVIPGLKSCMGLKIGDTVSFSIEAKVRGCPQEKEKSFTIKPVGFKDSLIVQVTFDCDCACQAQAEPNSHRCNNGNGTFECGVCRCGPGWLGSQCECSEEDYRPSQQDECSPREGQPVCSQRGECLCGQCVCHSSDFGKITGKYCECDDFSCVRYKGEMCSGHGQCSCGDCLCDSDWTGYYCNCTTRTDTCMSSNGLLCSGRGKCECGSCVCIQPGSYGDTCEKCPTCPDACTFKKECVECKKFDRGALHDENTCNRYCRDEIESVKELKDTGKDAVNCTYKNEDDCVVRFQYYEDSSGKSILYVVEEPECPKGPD
Description: (§2) All binding assays used the HTRF (homogeneous time resolved fluorescence) technology from Cisbio International, therefore all assays are described as HTRF binding assays. The assay results for the Examples are listed above together with the characterization data. The HTRF binding assays are established for the following integrins: human αVβ6, human αVβ1, human αVβ3, human αVβ5, and human αVβ8. All assays used the following assay buffer: 20 mM Tris, pH 7.4, 1 mM MgCl2, 1 mM MnCl2, 0.01% Tween 20, and 0.01% BSA. Alternatively, a SPA-based assay was used for evaluation of receptor binding.
(§3) The following describes the components and a representative procedure for the human αVβ6 HTRF binding assay: Recombinant human αVβ6 Integrin (R & D systems, 3817-AV) was biotinylated. Biotinylated human αVβ6 Integrin was added to assay vessel at a final concentration of 1.25 nM. FITC-conjugated fibronectin (Cytoskeleton, FNR02) was then added at the final concentration of 5 nM. The mixture was centrifuged at 600 rpm for three minutes using Thermo Fisher Heraeus Multifuge X3 centrifuge and then incubated at RT for an hour. Streptavidin Terbium (Cisbio international 610STLB) was then added at the final concentration of 0.625 nM. The resulting mixture was centrifuged at 600 rpm for three minutes using Thermo Fisher Heraeus Multifuge X3 centrifuge and then incubated at room temperature overnight in dark before reading HTRF signals.

human αVβ1 = human αVβ1 (Homo sapiens, UniProt P05556+P06756); experiment: human αVβ1 HTRF binding assay
Sequence of human αVβ1 (P06756 31-992 limits assumed): as the sequence (P06756 31-992 limits assumed) above
Sequence of human αVβ1 (P05556 21-728 limits assumed): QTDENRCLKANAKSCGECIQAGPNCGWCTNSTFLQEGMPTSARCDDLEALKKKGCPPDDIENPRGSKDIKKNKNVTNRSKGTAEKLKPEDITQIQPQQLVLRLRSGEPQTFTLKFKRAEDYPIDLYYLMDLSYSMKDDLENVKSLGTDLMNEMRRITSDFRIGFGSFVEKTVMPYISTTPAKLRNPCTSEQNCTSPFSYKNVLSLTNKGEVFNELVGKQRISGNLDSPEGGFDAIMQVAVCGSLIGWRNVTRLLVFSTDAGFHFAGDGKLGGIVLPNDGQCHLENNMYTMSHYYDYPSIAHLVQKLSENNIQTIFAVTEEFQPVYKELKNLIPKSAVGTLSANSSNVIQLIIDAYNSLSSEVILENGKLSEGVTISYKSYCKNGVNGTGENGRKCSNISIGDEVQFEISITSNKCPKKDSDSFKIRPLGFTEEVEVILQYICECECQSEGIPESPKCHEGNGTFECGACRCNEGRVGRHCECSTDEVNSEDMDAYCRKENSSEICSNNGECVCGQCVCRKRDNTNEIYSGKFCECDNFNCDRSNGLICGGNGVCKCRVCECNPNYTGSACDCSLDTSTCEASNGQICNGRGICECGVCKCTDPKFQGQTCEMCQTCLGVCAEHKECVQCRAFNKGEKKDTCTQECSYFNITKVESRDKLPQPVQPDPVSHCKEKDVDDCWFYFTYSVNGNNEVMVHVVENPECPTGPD
Description: as §2, §3

T1 sequence (P06756 31-992 limits assumed): as the sequence (P06756 31-992 limits assumed) above
T1 sequence (P18564 22-707 limits assumed): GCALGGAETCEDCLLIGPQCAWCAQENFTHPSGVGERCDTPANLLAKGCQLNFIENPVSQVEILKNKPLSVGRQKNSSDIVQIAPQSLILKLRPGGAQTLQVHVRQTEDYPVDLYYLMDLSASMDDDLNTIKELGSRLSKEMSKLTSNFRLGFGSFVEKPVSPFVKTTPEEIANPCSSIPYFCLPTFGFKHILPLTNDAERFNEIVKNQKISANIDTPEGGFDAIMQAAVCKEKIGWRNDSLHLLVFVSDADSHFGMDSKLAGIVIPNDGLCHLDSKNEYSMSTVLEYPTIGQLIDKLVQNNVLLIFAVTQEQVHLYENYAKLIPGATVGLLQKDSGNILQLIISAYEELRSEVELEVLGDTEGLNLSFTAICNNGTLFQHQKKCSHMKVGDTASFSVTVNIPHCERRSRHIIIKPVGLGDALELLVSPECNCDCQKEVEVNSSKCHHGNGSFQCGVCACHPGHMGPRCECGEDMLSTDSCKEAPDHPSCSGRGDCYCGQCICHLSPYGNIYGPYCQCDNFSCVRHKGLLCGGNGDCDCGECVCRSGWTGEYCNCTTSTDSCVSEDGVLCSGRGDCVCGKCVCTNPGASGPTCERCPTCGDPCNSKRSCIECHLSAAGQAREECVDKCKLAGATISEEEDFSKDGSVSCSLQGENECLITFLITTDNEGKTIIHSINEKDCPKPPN

Structure (SMILES)	pIC50 (human αVβ6)	pIC50 (human αVβ8)	pIC50 (human αVβ5)	pIC50 (human αVβ3)	pIC50 (human αVβ1)
CCOc1ncc(C(CC(=O)O)n2ccc(CCCc3ccc4c(n3)NCCC4)n2)cn1 (racemic) [Example 27, (±)-3-(2-Ethoxypyrimidin-5-yl)-3-(3-(3-(5,6,7,8-tetrahydro-1,8-naphthyridin-2-yl)propyl)-1H-pyrazol-1-yl)propanoic acid]	8.03	5.74	9.12	8.64	6.84
COc1cncc(C(CC(=O)O)n2nccc2CCCc2ccc3c(n2)NCCC3)c1 (single isomer, unassigned) [Example 63, 3-(5-methoxypyridin-3-yl)-3-(5-(3-(5,6,7,8-tetrahydro-1,8-naphthyridin-2-yl)propyl)-1H-pyrazol-1-yl)propanoic acid]	7.89	6.11	9.06	8.10	
CCOC(=O)C[C@@H](c1ccc(OC)nc1)n1ccc(CCCc2ccc3c(n2)NCCC3)n1 [Example 47, Ethyl (S)-3-(6-methoxypyridin-3-yl)-3-(3-(3-(5,6,7,8-tetrahydro-1,8-naphthyridin-2-yl)propyl)-1H-pyrazol-1-yl)propanoate]	7.96		6.57	5.95	
COc1ccc(C(CC(=O)O)n2ccc(-c3cccc(-c4ccc5c(n4)NCCC5)c3)n2)cn1 (racemic) [Example 46, (±)-3-(6-Methoxypyridin-3-yl)-3-(3-(3-(5,6,7,8-tetrahydro-1,8-naphthyridin-2-yl)phenyl)-1H-pyrazol-1-yl)propanoic acid]	7.55	5.09	7.96	7.85	
COc1ccc(C(CC(=O)O)c2ncc(CCCCc3ccc4c(n3)NCCC4)s2)cc1F (single isomer, unassigned) [Example 40]	7.77	5.59	8.00	7.55	
O=C(O)CC(c1cnc2ccccc2c1)n1ccc(CCCc2ccc3c(n2)NCCC3)n1 (racemic) [Example 29, (±)-3-(Quinolin-3-yl)-3-(3-(3-(5,6,7,8-tetrahydro-1,8-naphthyridin-2-yl)propyl)-1H-pyrazol-1-yl)propanoic acid]	7.95	5.54	8.19	8.77	6.54
COc1ccc(C(CC(=O)O)n2ccc(OCCCc3ccc4c(n3)NCCC4)n2)cn1 (racemic) [Example 48, (±)-3-(6-Methoxypyridin-3-yl)-3-(3-(3-(5,6,7,8-tetrahydro-1,8-naphthyridin-2-yl)propoxy)-1H-pyrazol-1-yl)propanoic acid]	7.54		8.57	8.12	
Cc1ncc([C@H](CC(=O)O)n2ccc(CCCc3ccc4c(n3)NCCC4)n2)cn1 [Example 54, (S)-3-(2-Methylpyrimidin-5-yl)-3-(3-(3-(5,6,7,8-tetrahydro-1,8-naphthyridin-2-yl)propyl)-1H-pyrazol-1-yl)propanoic acid]	7.74		9.00	8.14	
COc1cncc(C(CC(=O)O)n2ccc(CCCc3ccc4c(n3)NCCC4)n2)c1 (single isomer, unassigned) [Example 65, 3-(5-methoxypyridin-3-yl)-3-(3-(3-(5,6,7,8-tetrahydro-1,8-naphthyridin-2-yl)propyl)-1H-pyrazol-1-yl)propanoic acid]	6.39		8.96	8.37	

The next compounds have a higher pIC50 (human αVβ6) than those just listed; values first:

pIC50 (human αVβ6)	pIC50 (human αVβ8)	pIC50 (human αVβ5)	pIC50 (human αVβ3)	pIC50 (human αVβ1)	Structure (SMILES)
8.68	6.07		8.64	7.18	COc1ccc(C(CC(=O)O)c2nc(CCCc3ccc4c(n3)NCCC4)cs2)cc1F (single isomer, unassigned) [Example 38, 3-(3-Fluoro-4-methoxyphenyl)-3-(4-(3-(5,6,7,8-tetrahydro-1,8-naphthyridin-2-yl)propyl)thiazol-2-yl)propanoic acid]
8.17	6.38	9.47	8.57		COc1ccc(C(CC(=O)O)n2ccc(CCCc3ccc4c(n3)NCCC4)n2)cn1 (racemic) [Example 2, (±)-3-(6-Methoxypyridin-3-yl)-3-(3-(3-(5,6,7,8-tetrahydro-1,8-naphthyridin-2-yl)propyl)-1H-pyrazol-1-yl)propanoic acid]
8.37	5.57		8.26	7.37	O=C(O)CC(c1cccc(N2CCOCC2)c1)n1ccc(CCCc2ccc3c(n2)NCCC3)n1 (racemic) [Example 32, (±)-3-(3-Morpholinophenyl)-3-(3-(3-(5,6,7,8-tetrahydro-1,8-naphthyridin-2-yl)propyl)-1H-pyrazol-1-yl)propanoic acid]
8.68	6.29	7.96	8.72	6.62	COc1ccc(C(CC(=O)O)c2nc(CCCCc3ccc4c(n3)NCCC4)cs2)cn1 (single isomer, unassigned) [Example 14, 3-(6-Methoxypyridin-3-yl)-3-(4-(4-(5,6,7,8-tetrahydro-1,8-naphthyridin-2-yl)butyl)thiazol-2-yl)propanoic acid]
8.85	6.74	8.00	8.36	5.19	COc1ccc([C@H](CC(=O)O)N2CCC(CCCc3ccc4c(n3)NCCC4)C2)cn1 (stereo partly drawn) [Example 21, (3S)-3-(6-Methoxypyridin-3-yl)-3-(3-(3-(5,6,7,8-tetrahydro-1,8-naphthyridin-2-yl)propyl)pyrrolidin-1-yl)propanoic acid]
8.70	6.06	8.96	8.77	6.80	COc1ccc(C(CC(=O)O)c2nc(CCCCc3ccc4c(n3)NCCC4)cs2)cc1F (single isomer, unassigned) [Example 37, 3-(3-Fluoro-4-methoxyphenyl)-3-(4-(4-(5,6,7,8-tetrahydro-1,8-naphthyridin-2-yl)butyl)thiazol-2-yl)propanoic acid]
8.22	6.58	8.82	8.62		COc1ccc(C(CC(=O)O)n2ccc(CCCCc3ccc4c(n3)NCCC4)n2)cn1 (racemic) [Example 1, (±)-3-(6-Methoxypyridin-3-yl)-3-(3-(4-(5,6,7,8-tetrahydro-1,8-naphthyridin-2-yl)butyl)-1H-pyrazol-1-yl)propanoic acid]
8.49	5.95	7.96	8.49	7.19	COc1ccc(C(CC(=O)O)n2ccc(CCCc3ccc4c(n3)NCCC4)n2)cn1 (single isomer, unassigned) [Example 3, 3-(6-Methoxypyridin-3-yl)-3-(3-(3-(5,6,7,8-tetrahydro-1,8-naphthyridin-2-yl)propyl)-1H-pyrazol-1-yl)propanoic acid]
9.15	6.48		8.85	7.26	COc1ccc(C(CC(=O)O)c2nc(CCCc3ccc4c(n3)NCCC4)cs2)cn1 (single isomer, unassigned) [Example 15, 3-(6-Methoxypyridin-3-yl)-3-(4-(3-(5,6,7,8-tetrahydro-1,8-naphthyridin-2-yl)propyl)thiazol-2-yl)propanoic acid]
8.28	5.48		8.12	7.20	Cc1cc(C)n(-c2cccc(C(CC(=O)O)n3ccc(CCCc4ccc5c(n4)NCCC5)n3)c2)n1 (racemic) [Example 31, (±)-3-(3-(3,5-Dimethyl-1H-pyrazol-1-yl)phenyl)-3-(3-(3-(5,6,7,8-tetrahydro-1,8-naphthyridin-2-yl)propyl)-1H-pyrazol-1-yl)propanoic acid]
8.24	5.70	6.64	7.96	7.00	O=C(O)CC(c1ccc2c(c1)CCO2)n1ccc(CCCc2ccc3c(n2)NCCC3)n1 (racemic) [Example 30, (±)-3-(2,3-Dihydrobenzofuran-5-yl)-3-(3-(3-(5,6,7,8-tetrahydro-1,8-naphthyridin-2-yl)propyl)-1H-pyrazol-1-yl)propanoic acid]

Reference: patent US11884661B2, “3-substituted propionic acids as αV integrin inhibitors” (BRISTOL-MYERS SQUIBB COMPANY, priority 2016, dated 2024)
